Test system: Nucleic Acid
Experiment: Compound was tested for binding affinity against CT DNA.
Type: nucleic-acid assay
Conditions: Bos taurus

| Structure (SMILES) | Binding affinity |
| --- | --- |
| COc1cc2c(CCCN)c3cc(OC)c(OC)cc3c(CCCN)c2cc1OC | 40000 M⁻¹ |
| NCc1c2ccccc2cc2ccccc12 | 10000 M⁻¹ |

Reference: ChEMBL document CHEMBL1130648, “The synthesis of a new type of anthracene DNA intercalator” (Bioorg Med Chem Lett, 1998)
